# Source: ChEMBL document CHEMBL1147445, “Antagonists of human CCR5 receptor containing 4-(pyrazolyl)piperidine side chains. Part 2: Discovery of potent, selective, and orally bioavailable compounds” (Bioorg Med Chem Lett, 2004)
# Tested on: Rattus norvegicus
# Test: Area under curve in rat after p.o. administration
# Conditions: in vivo, po
row,SMILES,AUC N
1,CCC(CC)[C@H](C(=O)O)N1C[C@H](CN2CCC(c3cc(Cc4ccccc4)nn3CC)CC2)[C@@H](c2cccc(F)c2)C1,0.8 uM hr dose-1
2,CCn1nc(Cc2ccccc2)cc1C1CCN(C[C@H]2CN([C@H](CC3CC3)C(=O)O)C[C@@H]2c2cccc(F)c2)CC1,0.03 uM hr dose-1
3,CCn1nc(Cc2ccccc2)cc1C1CCN(C[C@H]2CN([C@@H](C(=O)O)C3CCC3)C[C@@H]2c2ccccc2)CC1,0.06 uM hr dose-1
4,CCn1nc(Cc2ccccc2)cc1C1CCN(C[C@H]2CN([C@](C)(C(=O)O)C(C)C)C[C@@H]2c2cccc(F)c2)CC1,0.62 uM hr dose-1

# Next, values leading:
row,AUC N,SMILES
1,1.1 uM hr dose-1,CCn1nc(Cc2ccccc2)cc1C1CCN(C[C@H]2CN([C@@H](C(=O)O)C(C)C)C[C@@H]2c2cccc(F)c2)CC1
2,0.16 uM hr dose-1,CC[C@@H](C)[C@H](C(=O)O)N1C[C@H](CN2CCC(c3cc(Cc4ccccc4)nn3CC)CC2)[C@@H](c2cccc(F)c2)C1
3,3.7 uM hr dose-1,CCn1nc(Cc2ccccc2)cc1C1CCN(C[C@H]2CN([C@@H](C(=O)O)C(C)(C)C)C[C@@H]2c2cccc(F)c2)CC1

# Tested on: Rattus norvegicus
# Test: Volumes of distribution in rat after po administration
# Conditions: in vivo
row,Vdss,SMILES
1,0.43 L/kg,CCn1nc(Cc2ccccc2)cc1C1CCN(C[C@H]2CN([C@](C)(C(=O)O)C(C)C)C[C@@H]2c2cccc(F)c2)CC1

# Tested on: not listed separately
# Test: Plasma clearance in dog (dosed at 0.5 mpk iv and 2.0 mpk orally)
# Format: ADME, organism-based, Canis lupus familiaris
# Conditions: 0.5 mg/kg, read-out: Clp
row,clearance,SMILES
1,3.5 mL/min/kg,CCn1nc(Cc2ccccc2)cc1C1CCN(C[C@H]2CN([C@@H](C(=O)O)C(C)C)C[C@@H]2c2cccc(F)c2)CC1
2,13 mL/min/kg,CCn1nc(Cc2ccccc2)cc1C1CCN(C[C@H]2CN([C@@H](C(=O)O)C(C)(C)C)C[C@@H]2c2cccc(F)c2)CC1

# Tested on: not listed separately
# Test: Half life in monkey (dosed at 0.5 mpk iv and 2.0 mpk orally)
# Format: ADME, organism-based
# Conditions: cercopithecidae, in vivo
row,half-life,SMILES
1,78 min,CCn1nc(Cc2ccccc2)cc1C1CCN(C[C@H]2CN([C@@H](C(=O)O)C(C)C)C[C@@H]2c2cccc(F)c2)CC1

# Tested on: not listed separately
# Test: Half life in dog (dosed at 0.5 mpk iv and 2.0 mpk orally)
# Format: ADME, organism-based, Canis lupus familiaris
# Conditions: in vivo
row,half-life,SMILES
1,204 min,CCn1nc(Cc2ccccc2)cc1C1CCN(C[C@H]2CN([C@@H](C(=O)O)C(C)C)C[C@@H]2c2cccc(F)c2)CC1
2,38.4 min,CCn1nc(Cc2ccccc2)cc1C1CCN(C[C@H]2CN([C@@H](C(=O)O)C(C)(C)C)C[C@@H]2c2cccc(F)c2)CC1

# Molecular target: C-C chemokine receptor type 5 (Homo sapiens, UniProt P51681)
# Sequence (P51681 whole entry): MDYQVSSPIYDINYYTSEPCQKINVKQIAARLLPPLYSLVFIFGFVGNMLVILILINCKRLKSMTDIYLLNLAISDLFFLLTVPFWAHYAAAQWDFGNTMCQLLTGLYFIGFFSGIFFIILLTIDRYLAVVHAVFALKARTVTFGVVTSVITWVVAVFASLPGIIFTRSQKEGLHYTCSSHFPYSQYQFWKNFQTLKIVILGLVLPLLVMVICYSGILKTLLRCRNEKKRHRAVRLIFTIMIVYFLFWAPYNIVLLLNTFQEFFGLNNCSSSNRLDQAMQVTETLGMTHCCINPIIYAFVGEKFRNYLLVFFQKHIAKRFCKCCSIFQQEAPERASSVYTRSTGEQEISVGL
# Test: Displacement of [125I]-MIP-1 alpha from human […] chemokine receptor 5 expressed in CHO cells
# Format: cell-based
# Conditions: not given
row,SMILES,IC50
1,CCC(CC)[C@H](C(=O)O)N1C[C@H](CN2CCC(c3cc(Cc4ccccc4)nn3CC)CC2)[C@@H](c2cccc(F)c2)C1,0.9 nM
2,CCn1nc(Cc2ccccc2)cc1C1CCN(C[C@H]2CN([C@H](CC3CC3)C(=O)O)C[C@@H]2c2cccc(F)c2)CC1,1.2 nM
3,CCn1nc(Cc2ccccc2)cc1C1CCN(C[C@H]2CN([C@@H](C(=O)O)C3CCC3)C[C@@H]2c2ccccc2)CC1,1.6 nM
4,CCn1nc(Cc2ccccc2)cc1C1CCN(C[C@H]2CN([C@](C)(C(=O)O)C(C)C)C[C@@H]2c2cccc(F)c2)CC1,5.5 nM

# Results, then the compound that gave them:
row,IC50,SMILES
1,1.5 nM,CCn1nc(Cc2ccccc2)cc1C1CCN(C[C@H]2CN([C@@H](C(=O)O)C(C)C)C[C@@H]2c2cccc(F)c2)CC1
2,0.8 nM,CC[C@@H](C)[C@H](C(=O)O)N1C[C@H](CN2CCC(c3cc(Cc4ccccc4)nn3CC)CC2)[C@@H](c2cccc(F)c2)C1
3,0.8 nM,CCn1nc(Cc2ccccc2)cc1C1CCN(C[C@H]2CN([C@@H](C(=O)O)C(C)(C)C)C[C@@H]2c2cccc(F)c2)CC1

# Tested on: not listed separately
# Test: Oral AUCN in monkey (dosed at 0.5 mpk iv )
# Format: ADME, organism-based
# Conditions: cercopithecidae, in vivo, 0.5 mg/kg
row,AUC N,SMILES
1,0.08 uM hr dose-1,CCn1nc(Cc2ccccc2)cc1C1CCN(C[C@H]2CN([C@@H](C(=O)O)C(C)C)C[C@@H]2c2cccc(F)c2)CC1

# Tested on: not listed separately
# Test: Oral bioavailability in monkey (dosed at 0.5 mpk iv and 2.0 mpk orally)
# Format: ADME, organism-based
# Conditions: cercopithecidae, in vivo, 2 mg/kg
row,bioavailability,SMILES
1,4.7%,CCn1nc(Cc2ccccc2)cc1C1CCN(C[C@H]2CN([C@@H](C(=O)O)C(C)C)C[C@@H]2c2cccc(F)c2)CC1

# Tested on: not listed separately
# Test: Inhibition of HIV-1 infectivity using peripheral bloodmonon uclear cells against the BAL-1 strain
# Format: functional
# Conditions: Homo sapiens
row,SMILES,IC95
1,CCn1nc(Cc2ccccc2)cc1C1CCN(C[C@H]2CN([C@@H](C(=O)O)C(C)C)C[C@@H]2c2cccc(F)c2)CC1,22 nM
2,CCn1nc(Cc2ccccc2)cc1C1CCN(C[C@H]2CN([C@H](CC3CC3)C(=O)O)C[C@@H]2c2cccc(F)c2)CC1,< 8 nM

# Tested on: not listed separately
# Test: Oral bioavailability in dog (dose 0.5 mg/kg i.v. and 2.0 mg/kg p.o.)
# Format: ADME, organism-based, Canis lupus familiaris
# Conditions: in vivo
row,bioavailability,SMILES
1,20%,CCn1nc(Cc2ccccc2)cc1C1CCN(C[C@H]2CN([C@@H](C(=O)O)C(C)C)C[C@@H]2c2cccc(F)c2)CC1
2,44%,CCn1nc(Cc2ccccc2)cc1C1CCN(C[C@H]2CN([C@@H](C(=O)O)C(C)(C)C)C[C@@H]2c2cccc(F)c2)CC1

# Tested on: not listed separately
# Test: in vivo
# Conditions: rat, plasma
row,SMILES,clearance
1,CCC(CC)[C@H](C(=O)O)N1C[C@H](CN2CCC(c3cc(Cc4ccccc4)nn3CC)CC2)[C@@H](c2cccc(F)c2)C1,19 mL/min/kg
2,CCn1nc(Cc2ccccc2)cc1C1CCN(C[C@H]2CN([C@](C)(C(=O)O)C(C)C)C[C@@H]2c2cccc(F)c2)CC1,10 mL/min/kg

# The next lines start with the values.
row,clearance,SMILES
1,3.2 mL/min/kg,CCn1nc(Cc2ccccc2)cc1C1CCN(C[C@H]2CN([C@@H](C(=O)O)C(C)C)C[C@@H]2c2cccc(F)c2)CC1
2,25 mL/min/kg,CC[C@@H](C)[C@H](C(=O)O)N1C[C@H](CN2CCC(c3cc(Cc4ccccc4)nn3CC)CC2)[C@@H](c2cccc(F)c2)C1
3,5.7 mL/min/kg,CCn1nc(Cc2ccccc2)cc1C1CCN(C[C@H]2CN([C@@H](C(=O)O)C(C)(C)C)C[C@@H]2c2cccc(F)c2)CC1

# Tested on: not listed separately
# Test: Oral bioavailability in rat
# Conditions: in vivo
row,SMILES,bioavailability
1,CCC(CC)[C@H](C(=O)O)N1C[C@H](CN2CCC(c3cc(Cc4ccccc4)nn3CC)CC2)[C@@H](c2cccc(F)c2)C1,52%
2,CCn1nc(Cc2ccccc2)cc1C1CCN(C[C@H]2CN([C@H](CC3CC3)C(=O)O)C[C@@H]2c2cccc(F)c2)CC1,8.1%
3,CCn1nc(Cc2ccccc2)cc1C1CCN(C[C@H]2CN([C@@H](C(=O)O)C3CCC3)C[C@@H]2c2ccccc2)CC1,11%
4,CCn1nc(Cc2ccccc2)cc1C1CCN(C[C@H]2CN([C@](C)(C(=O)O)C(C)C)C[C@@H]2c2cccc(F)c2)CC1,21%

# The remaining lines, values ahead:
row,bioavailability,SMILES
1,11%,CCn1nc(Cc2ccccc2)cc1C1CCN(C[C@H]2CN([C@@H](C(=O)O)C(C)C)C[C@@H]2c2cccc(F)c2)CC1
2,13%,CC[C@@H](C)[C@H](C(=O)O)N1C[C@H](CN2CCC(c3cc(Cc4ccccc4)nn3CC)CC2)[C@@H](c2cccc(F)c2)C1
3,71%,CCn1nc(Cc2ccccc2)cc1C1CCN(C[C@H]2CN([C@@H](C(=O)O)C(C)(C)C)C[C@@H]2c2cccc(F)c2)CC1

# Tested on: not listed separately
# Test: in vivo
# Conditions: rat
row,SMILES,half-life
1,CCC(CC)[C@H](C(=O)O)N1C[C@H](CN2CCC(c3cc(Cc4ccccc4)nn3CC)CC2)[C@@H](c2cccc(F)c2)C1,35.4 min
2,CCn1nc(Cc2ccccc2)cc1C1CCN(C[C@H]2CN([C@H](CC3CC3)C(=O)O)C[C@@H]2c2cccc(F)c2)CC1,15 min
3,CCn1nc(Cc2ccccc2)cc1C1CCN(C[C@H]2CN([C@@H](C(=O)O)C3CCC3)C[C@@H]2c2ccccc2)CC1,60 min
4,CCn1nc(Cc2ccccc2)cc1C1CCN(C[C@H]2CN([C@](C)(C(=O)O)C(C)C)C[C@@H]2c2cccc(F)c2)CC1,44.4 min

# Further lines, results first:
row,half-life,SMILES
1,84 min,CCn1nc(Cc2ccccc2)cc1C1CCN(C[C@H]2CN([C@@H](C(=O)O)C(C)C)C[C@@H]2c2cccc(F)c2)CC1
2,32.4 min,CC[C@@H](C)[C@H](C(=O)O)N1C[C@H](CN2CCC(c3cc(Cc4ccccc4)nn3CC)CC2)[C@@H](c2cccc(F)c2)C1
3,47.4 min,CCn1nc(Cc2ccccc2)cc1C1CCN(C[C@H]2CN([C@@H](C(=O)O)C(C)(C)C)C[C@@H]2c2cccc(F)c2)CC1

# Tested on: Canis familiaris
# Test: Oral AUCN in dog (dosed at 2.0 mpk po )
# Conditions: in vivo, 2.0 mg/kg
row,AUC N,SMILES
1,1.9 uM hr dose-1,CCn1nc(Cc2ccccc2)cc1C1CCN(C[C@H]2CN([C@@H](C(=O)O)C(C)C)C[C@@H]2c2cccc(F)c2)CC1
2,1 uM hr dose-1,CCn1nc(Cc2ccccc2)cc1C1CCN(C[C@H]2CN([C@@H](C(=O)O)C(C)(C)C)C[C@@H]2c2cccc(F)c2)CC1

# Tested on: not listed separately
# Test: Clearance rat (dosed at 0.5 mpk IV and 2.0 mpk po.)
# Format: ADME, organism-based
# Conditions: plasma, 0.5 mg/kg, read-out: Clp
row,clearance,SMILES
1,81 mL/min/kg,CCn1nc(Cc2ccccc2)cc1C1CCN(C[C@H]2CN([C@H](CC3CC3)C(=O)O)C[C@@H]2c2cccc(F)c2)CC1
2,60 mL/min/kg,CCn1nc(Cc2ccccc2)cc1C1CCN(C[C@H]2CN([C@@H](C(=O)O)C3CCC3)C[C@@H]2c2ccccc2)CC1

# Tested on: HeLa
# Test: In vitro antiviral activity against HIV-1 infected HeLa cells
# Format: functional
# Conditions: Homo sapiens
row,SMILES,IC90
1,CCC(CC)[C@H](C(=O)O)N1C[C@H](CN2CCC(c3cc(Cc4ccccc4)nn3CC)CC2)[C@@H](c2cccc(F)c2)C1,0.4 nM
2,CCn1nc(Cc2ccccc2)cc1C1CCN(C[C@H]2CN([C@H](CC3CC3)C(=O)O)C[C@@H]2c2cccc(F)c2)CC1,0.4 nM
3,CCn1nc(Cc2ccccc2)cc1C1CCN(C[C@H]2CN([C@@H](C(=O)O)C3CCC3)C[C@@H]2c2ccccc2)CC1,3.7 nM
4,CCn1nc(Cc2ccccc2)cc1C1CCN(C[C@H]2CN([C@](C)(C(=O)O)C(C)C)C[C@@H]2c2cccc(F)c2)CC1,> 300 nM

# The next lines start with the values.
row,IC90,SMILES
1,3.7 nM,CCn1nc(Cc2ccccc2)cc1C1CCN(C[C@H]2CN([C@@H](C(=O)O)C(C)C)C[C@@H]2c2cccc(F)c2)CC1
2,< 0.14 nM,CC[C@@H](C)[C@H](C(=O)O)N1C[C@H](CN2CCC(c3cc(Cc4ccccc4)nn3CC)CC2)[C@@H](c2cccc(F)c2)C1
3,< 0.14 nM,CCn1nc(Cc2ccccc2)cc1C1CCN(C[C@H]2CN([C@@H](C(=O)O)C(C)(C)C)C[C@@H]2c2cccc(F)c2)CC1

# Tested on: not listed separately
# Test: Plasma clearance in monkey (dosed at 0.5 mpk iv and 2.0 mpk orally)
# Format: ADME, organism-based
# Conditions: cercopithecidae, 0.5 mg/kg, read-out: Clp
row,clearance,SMILES
1,20 mL/min/kg,CCn1nc(Cc2ccccc2)cc1C1CCN(C[C@H]2CN([C@@H](C(=O)O)C(C)C)C[C@@H]2c2cccc(F)c2)CC1

# Tested on: not listed separately
# Test: Inhibition of HIV-1 infectivity using peripheral bloodmonon uclear cells against the BAL-1 strain in the presence of 50% normal human serum (NHS)
# Format: functional
# Conditions: not given
row,SMILES,IC95
1,CCn1nc(Cc2ccccc2)cc1C1CCN(C[C@H]2CN([C@@H](C(=O)O)C(C)C)C[C@@H]2c2cccc(F)c2)CC1,350 nM
2,CCn1nc(Cc2ccccc2)cc1C1CCN(C[C@H]2CN([C@H](CC3CC3)C(=O)O)C[C@@H]2c2cccc(F)c2)CC1,31 nM
